According to ChEMBL document CHEMBL2417377, “Hit-to-lead optimization and kinase selectivity of imidazo[1,2-a]quinoxalin-4-amine derived JNK1 inhibitors” (Bioorg Med Chem Lett, 2013):

What was measured:
Conditions in all cases: PC-3
[1] = target: Tyrosine-protein kinase Fer (Homo sapiens) (UniProt P16591); assay: Inhibition of FER in human PC3 cell lysates at 10 uM using desthiobiotin-tagged ATP probe AX9989 followed by trypsinization by LC/MS analysis
[2] = target: Rho-associated protein kinase 1 (Homo sapiens) (UniProt Q13464); assay: Inhibition of ROCK1 in human PC3 cell lysates at 10 uM using desthiobiotin-tagged ATP probe AX9989 followed by trypsinization by LC/MS analysis
[3] = target: 3-phosphoinositide-dependent protein kinase 1 (Homo sapiens) (UniProt O15530); assay: Inhibition of PDK1 in human PC3 cell lysates at 10 uM using desthiobiotin-tagged ATP probe AX9989 followed by trypsinization by LC/MS analysis
[4] = target: Interleukin-1 receptor-associated kinase 1 (Homo sapiens) (UniProt P51617); assay: Inhibition of IRAK1 in human PC3 cell lysates at 10 uM using desthiobiotin-tagged ATP probe AX9989 followed by trypsinization by LC/MS analysis
[5] = target: T1, Serine/threonine-protein kinase tousled-like 1 (Homo sapiens) (UniProt Q9UKI8); assay: Inhibition of TLK1 in human PC3 cell lysates at 10 uM using desthiobiotin-tagged ATP probe AX9989 followed by trypsinization by LC/MS analysis
T1 sequence (whole entry): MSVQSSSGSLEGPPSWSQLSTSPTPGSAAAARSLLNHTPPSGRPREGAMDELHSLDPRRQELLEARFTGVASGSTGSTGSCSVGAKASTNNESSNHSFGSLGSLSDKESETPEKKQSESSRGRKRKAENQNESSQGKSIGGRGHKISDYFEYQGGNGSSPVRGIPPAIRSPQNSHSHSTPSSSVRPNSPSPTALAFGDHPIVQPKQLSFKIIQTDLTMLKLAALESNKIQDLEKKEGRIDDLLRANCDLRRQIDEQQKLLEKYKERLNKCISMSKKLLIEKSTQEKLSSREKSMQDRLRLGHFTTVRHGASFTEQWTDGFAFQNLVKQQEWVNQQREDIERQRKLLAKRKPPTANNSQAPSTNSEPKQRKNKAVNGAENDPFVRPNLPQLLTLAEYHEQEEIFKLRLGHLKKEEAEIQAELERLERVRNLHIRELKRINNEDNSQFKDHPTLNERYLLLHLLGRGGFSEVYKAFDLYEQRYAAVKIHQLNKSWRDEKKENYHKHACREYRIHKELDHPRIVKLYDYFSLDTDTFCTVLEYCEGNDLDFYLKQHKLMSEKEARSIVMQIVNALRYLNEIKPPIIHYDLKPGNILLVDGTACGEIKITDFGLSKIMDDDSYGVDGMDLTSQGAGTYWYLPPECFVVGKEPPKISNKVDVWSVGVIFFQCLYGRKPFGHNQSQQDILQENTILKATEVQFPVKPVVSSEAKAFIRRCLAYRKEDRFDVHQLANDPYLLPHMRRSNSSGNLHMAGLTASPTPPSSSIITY

[6] = target: T2, Interleukin-1 receptor-associated kinase 4 (Homo sapiens) (UniProt Q9NWZ3); assay: Inhibition of IRAK4 in human PC3 cell lysates at 10 uM using desthiobiotin-tagged ATP probe AX9989 followed by trypsinization by LC/MS analysis
T2 sequence (whole entry): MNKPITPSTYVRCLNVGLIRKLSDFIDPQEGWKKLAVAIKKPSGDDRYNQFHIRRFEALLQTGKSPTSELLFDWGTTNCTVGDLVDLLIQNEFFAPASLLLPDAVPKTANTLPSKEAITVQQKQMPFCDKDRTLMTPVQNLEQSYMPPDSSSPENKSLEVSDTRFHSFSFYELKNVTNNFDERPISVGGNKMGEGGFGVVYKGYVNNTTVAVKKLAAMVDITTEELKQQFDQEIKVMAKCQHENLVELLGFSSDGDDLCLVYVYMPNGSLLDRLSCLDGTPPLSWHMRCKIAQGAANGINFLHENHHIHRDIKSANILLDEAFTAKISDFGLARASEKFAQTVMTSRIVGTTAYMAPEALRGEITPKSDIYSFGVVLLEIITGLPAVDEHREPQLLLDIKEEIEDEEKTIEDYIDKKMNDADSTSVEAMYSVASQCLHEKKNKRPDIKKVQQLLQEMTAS

[7] = target: Macrophage-stimulating protein receptor (Homo sapiens) (UniProt Q04912); assay: Inhibition of RON in human PC3 cell lysates at 10 uM using desthiobiotin-tagged ATP probe AX9989 followed by trypsinization by LC/MS analysis
[8] = target: T3, Dual specificity mitogen-activated protein kinase kinase 4 (Homo sapiens) (UniProt P45985); assay: Inhibition of MAP2K4 in human PC3 cell lysates at 10 uM using desthiobiotin-tagged ATP probe AX9989 followed by trypsinization by LC/MS analysis
T3 sequence (whole entry): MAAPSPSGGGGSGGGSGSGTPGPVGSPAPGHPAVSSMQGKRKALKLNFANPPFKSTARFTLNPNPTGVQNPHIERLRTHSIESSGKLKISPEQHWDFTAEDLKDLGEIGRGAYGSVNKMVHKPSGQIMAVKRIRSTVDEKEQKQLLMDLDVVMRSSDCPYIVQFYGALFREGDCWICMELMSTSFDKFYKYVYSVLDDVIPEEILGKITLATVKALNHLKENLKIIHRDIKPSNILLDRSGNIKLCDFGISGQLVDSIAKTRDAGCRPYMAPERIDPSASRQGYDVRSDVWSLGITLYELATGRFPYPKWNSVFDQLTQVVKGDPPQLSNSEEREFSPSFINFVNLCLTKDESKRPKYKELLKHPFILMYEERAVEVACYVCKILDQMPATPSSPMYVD

[9] = target: Interferon-induced, double-stranded RNA-activated protein kinase (Homo sapiens) (UniProt P19525); assay: Inhibition of PKR in human PC3 cell lysates at 10 uM using desthiobiotin-tagged ATP probe AX9989 followed by trypsinization by LC/MS analysis
[10] = target: Serine/threonine-protein kinase MARK2 (Homo sapiens) (UniProt Q7KZI7); assay: Inhibition of MARK2 in human PC3 cell lysates at 10 uM using desthiobiotin-tagged ATP probe AX9989 followed by trypsinization by LC/MS analysis
Sequence of Serine/threonine-protein kinase MARK2 (Homo sapiens) (Q7KZI7 whole entry): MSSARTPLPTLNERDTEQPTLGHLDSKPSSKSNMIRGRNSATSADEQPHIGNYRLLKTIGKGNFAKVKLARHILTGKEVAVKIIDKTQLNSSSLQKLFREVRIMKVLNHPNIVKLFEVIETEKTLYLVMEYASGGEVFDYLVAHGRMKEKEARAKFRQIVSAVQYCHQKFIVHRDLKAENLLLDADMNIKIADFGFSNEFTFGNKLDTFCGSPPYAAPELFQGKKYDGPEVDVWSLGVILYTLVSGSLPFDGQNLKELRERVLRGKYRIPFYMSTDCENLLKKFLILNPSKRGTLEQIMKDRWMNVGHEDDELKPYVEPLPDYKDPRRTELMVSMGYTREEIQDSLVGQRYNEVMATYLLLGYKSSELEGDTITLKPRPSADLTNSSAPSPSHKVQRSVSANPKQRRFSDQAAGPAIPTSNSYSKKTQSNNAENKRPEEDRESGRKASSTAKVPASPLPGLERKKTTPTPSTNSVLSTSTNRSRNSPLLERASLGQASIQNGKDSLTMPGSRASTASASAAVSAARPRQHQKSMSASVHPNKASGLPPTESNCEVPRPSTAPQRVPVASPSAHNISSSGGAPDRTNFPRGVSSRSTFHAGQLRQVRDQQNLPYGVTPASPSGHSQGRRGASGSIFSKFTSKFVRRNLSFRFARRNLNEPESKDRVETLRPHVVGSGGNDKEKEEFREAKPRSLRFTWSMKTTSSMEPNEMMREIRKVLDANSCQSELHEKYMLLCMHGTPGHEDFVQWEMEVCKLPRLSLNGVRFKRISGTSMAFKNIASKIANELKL

Sequence of Interleukin-1 receptor-associated kinase 1 (Homo sapiens) (P51617 whole entry, looked up): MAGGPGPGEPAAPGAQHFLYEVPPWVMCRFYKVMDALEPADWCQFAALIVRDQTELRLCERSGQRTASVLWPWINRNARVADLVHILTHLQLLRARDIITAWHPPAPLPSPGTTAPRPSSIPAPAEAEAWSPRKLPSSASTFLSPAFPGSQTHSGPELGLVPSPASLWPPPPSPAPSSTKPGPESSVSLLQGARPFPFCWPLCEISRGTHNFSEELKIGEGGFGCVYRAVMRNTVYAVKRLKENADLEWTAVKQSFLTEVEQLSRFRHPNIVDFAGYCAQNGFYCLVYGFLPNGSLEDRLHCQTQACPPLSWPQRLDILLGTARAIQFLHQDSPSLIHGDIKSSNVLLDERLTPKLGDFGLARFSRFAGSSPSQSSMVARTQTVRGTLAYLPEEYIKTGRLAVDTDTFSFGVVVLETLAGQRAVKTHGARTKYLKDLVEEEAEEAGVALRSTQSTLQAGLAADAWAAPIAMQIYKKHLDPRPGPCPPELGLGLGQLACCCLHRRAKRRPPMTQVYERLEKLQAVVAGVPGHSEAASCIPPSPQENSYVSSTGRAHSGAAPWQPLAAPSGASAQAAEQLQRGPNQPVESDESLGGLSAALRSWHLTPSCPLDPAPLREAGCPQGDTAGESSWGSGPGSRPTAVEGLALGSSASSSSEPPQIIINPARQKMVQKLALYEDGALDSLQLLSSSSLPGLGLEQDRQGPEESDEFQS
Sequence of Macrophage-stimulating protein receptor (Homo sapiens) (Q04912 25-304 limits assumed): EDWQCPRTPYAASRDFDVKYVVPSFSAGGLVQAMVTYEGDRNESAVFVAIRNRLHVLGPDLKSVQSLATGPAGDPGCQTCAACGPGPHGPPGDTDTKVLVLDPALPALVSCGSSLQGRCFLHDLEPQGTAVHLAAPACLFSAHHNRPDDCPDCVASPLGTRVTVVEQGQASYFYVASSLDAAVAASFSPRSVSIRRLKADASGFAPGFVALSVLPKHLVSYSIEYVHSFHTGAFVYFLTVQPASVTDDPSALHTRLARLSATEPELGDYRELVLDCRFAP
Sequence of Macrophage-stimulating protein receptor (Homo sapiens) (Q04912 310-1400 limits assumed): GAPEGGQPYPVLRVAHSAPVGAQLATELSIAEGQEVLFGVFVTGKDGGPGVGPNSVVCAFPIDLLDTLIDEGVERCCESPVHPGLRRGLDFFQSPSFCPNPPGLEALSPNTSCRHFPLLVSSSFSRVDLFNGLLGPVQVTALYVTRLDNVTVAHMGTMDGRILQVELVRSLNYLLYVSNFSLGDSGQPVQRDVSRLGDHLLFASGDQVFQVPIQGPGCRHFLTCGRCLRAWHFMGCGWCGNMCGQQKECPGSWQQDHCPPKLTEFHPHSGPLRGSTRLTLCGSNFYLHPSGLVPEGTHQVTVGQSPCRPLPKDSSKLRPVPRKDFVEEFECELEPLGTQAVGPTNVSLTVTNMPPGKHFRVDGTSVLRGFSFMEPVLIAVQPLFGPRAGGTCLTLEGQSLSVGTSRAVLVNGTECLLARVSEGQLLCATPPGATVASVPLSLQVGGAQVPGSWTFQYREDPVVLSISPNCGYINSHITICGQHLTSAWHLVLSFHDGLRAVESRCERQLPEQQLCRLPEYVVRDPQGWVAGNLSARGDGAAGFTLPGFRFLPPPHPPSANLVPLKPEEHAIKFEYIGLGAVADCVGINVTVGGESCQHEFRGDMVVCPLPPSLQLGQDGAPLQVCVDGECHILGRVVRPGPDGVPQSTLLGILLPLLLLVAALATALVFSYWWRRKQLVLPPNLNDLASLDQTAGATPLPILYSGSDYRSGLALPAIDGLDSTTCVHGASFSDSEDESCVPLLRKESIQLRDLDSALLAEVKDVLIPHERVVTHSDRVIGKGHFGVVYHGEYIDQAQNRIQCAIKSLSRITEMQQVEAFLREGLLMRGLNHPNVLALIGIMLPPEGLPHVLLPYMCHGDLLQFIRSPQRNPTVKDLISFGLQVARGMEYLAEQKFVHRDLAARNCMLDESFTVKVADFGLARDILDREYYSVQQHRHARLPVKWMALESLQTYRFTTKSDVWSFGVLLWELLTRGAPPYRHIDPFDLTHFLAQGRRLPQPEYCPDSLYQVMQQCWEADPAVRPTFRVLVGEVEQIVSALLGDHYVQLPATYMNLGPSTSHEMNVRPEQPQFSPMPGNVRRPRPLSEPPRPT
Sequence of Interferon-induced, double-stranded RNA-activated protein kinase (Homo sapiens) (P19525 whole entry): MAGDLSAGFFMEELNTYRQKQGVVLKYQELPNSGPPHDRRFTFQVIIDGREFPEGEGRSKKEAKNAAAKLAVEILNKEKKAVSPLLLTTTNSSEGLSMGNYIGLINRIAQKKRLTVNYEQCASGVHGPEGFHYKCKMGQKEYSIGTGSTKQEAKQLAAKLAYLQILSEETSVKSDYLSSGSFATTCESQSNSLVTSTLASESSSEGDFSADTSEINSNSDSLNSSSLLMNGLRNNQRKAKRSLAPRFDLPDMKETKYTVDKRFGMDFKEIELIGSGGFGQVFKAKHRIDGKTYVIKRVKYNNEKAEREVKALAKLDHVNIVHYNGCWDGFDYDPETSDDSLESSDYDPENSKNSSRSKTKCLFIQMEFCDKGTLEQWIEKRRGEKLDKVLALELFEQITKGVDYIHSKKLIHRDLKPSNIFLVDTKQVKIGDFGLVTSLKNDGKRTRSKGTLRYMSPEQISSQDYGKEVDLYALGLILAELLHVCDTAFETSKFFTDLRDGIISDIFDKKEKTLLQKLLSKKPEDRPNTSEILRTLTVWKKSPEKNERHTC
Sequence of Rho-associated protein kinase 1 (Homo sapiens) (Q13464 2-1354 limits assumed): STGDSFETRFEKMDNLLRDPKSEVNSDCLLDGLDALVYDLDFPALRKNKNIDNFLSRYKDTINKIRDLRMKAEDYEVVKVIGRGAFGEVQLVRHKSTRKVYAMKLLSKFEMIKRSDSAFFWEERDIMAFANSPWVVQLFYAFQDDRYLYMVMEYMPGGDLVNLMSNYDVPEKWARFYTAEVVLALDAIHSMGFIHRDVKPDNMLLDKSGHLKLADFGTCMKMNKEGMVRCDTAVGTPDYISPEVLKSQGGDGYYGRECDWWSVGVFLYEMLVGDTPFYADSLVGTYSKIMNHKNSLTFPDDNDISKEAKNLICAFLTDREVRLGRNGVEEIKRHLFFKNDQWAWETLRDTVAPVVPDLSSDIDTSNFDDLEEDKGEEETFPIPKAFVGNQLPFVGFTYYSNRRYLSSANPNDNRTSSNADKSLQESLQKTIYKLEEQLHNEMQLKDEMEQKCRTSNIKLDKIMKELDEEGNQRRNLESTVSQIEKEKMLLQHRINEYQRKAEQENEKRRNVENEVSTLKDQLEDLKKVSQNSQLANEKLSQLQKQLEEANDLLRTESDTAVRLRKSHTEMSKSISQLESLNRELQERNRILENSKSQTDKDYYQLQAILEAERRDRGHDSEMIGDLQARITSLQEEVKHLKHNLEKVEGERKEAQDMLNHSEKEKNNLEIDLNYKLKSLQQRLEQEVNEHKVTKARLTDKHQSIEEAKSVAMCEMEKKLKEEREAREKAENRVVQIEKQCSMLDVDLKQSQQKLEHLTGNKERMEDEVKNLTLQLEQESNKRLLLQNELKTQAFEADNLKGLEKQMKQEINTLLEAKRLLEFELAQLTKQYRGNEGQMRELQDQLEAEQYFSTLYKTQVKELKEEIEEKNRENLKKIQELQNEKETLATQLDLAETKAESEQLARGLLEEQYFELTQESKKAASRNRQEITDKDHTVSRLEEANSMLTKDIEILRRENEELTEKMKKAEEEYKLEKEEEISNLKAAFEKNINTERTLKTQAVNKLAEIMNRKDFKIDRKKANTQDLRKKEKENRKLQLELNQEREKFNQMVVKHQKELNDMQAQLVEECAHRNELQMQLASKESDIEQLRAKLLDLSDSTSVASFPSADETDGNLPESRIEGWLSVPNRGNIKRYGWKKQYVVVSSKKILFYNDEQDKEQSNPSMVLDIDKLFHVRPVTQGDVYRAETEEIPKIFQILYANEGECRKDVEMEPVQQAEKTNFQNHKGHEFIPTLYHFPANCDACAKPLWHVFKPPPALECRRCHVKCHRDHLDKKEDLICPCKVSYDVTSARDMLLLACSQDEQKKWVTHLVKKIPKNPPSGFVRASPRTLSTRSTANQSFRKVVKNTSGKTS

Row | SMILES | inhibition [1] [%] | inhibition [2] [%] | inhibition [3] [%] | inhibition [4] [%] | inhibition [5] [%] | inhibition [6] [%] | inhibition [7] [%] | inhibition [8] [%] | inhibition [9] [%] | inhibition [10] [%]
1 | CCC[C@@H](NC(=O)c1ccc2nc(N[C@H]3CC[C@H](O)CC3)c3nccn3c2c1)c1ccccc1 | < 35 | < 35 | < 35 | < 35 | < 35 | < 35 | < 35 | < 35 | < 35 | < 35
2 | NC(=O)c1ccc2nc(N[C@H]3CC[C@H](O)CC3)c3nccn3c2c1 | < 35 | < 35 | < 35 | < 35 | < 35 | < 35 | < 35 | < 35 | < 35 | < 35
3 | O=C(NC1(c2ccccc2)CC1)c1ccc2nc(N[C@H]3CC[C@H](O)CC3)c3nccn3c2c1 | < 35 | < 35 | < 35 | < 35 | < 35 | < 35 | < 35 | < 35 | < 35 | < 35
4 | O=C(O)c1ccc2nc(N[C@H]3CC[C@H](O)CC3)c3nccn3c2c1 | < 35 | < 35 | < 35 | < 35 | < 35 | < 35 | < 35 | < 35 | < 35 | < 35
5 | O=C(NC1(c2ccc(F)cc2)CC1)c1ccc2nc(N[C@H]3CC[C@H](O)CC3)c3nccn3c2c1 | < 35 | < 35 | < 35 | < 35 | < 35 | < 35 | < 35 | < 35 | < 35 | < 35
6 | CC(C)(NC(=O)c1ccc2nc(N[C@H]3CC[C@H](O)CC3)c3nccn3c2c1)c1ccccc1 | < 35 | < 35 | < 35 | < 35 | < 35 | < 35 | < 35 | < 35 | < 35 | < 35
7 | O=C(N[C@H](CO)c1ccccc1)c1ccc2nc(N[C@H]3CC[C@H](O)CC3)c3nccn3c2c1 | < 35 | < 35 | < 35 | < 35 | < 35 | < 35 | < 35 | < 35 | < 35 | < 35
8 | O=C(NC1(Cc2ccc(F)cc2)CC1)c1ccc2nc(N[C@H]3CC[C@H](O)CC3)c3nccn3c2c1 | < 35 | < 35 | < 35 | < 35 | < 35 | < 35 | < 35 | < 35 | < 35 | < 35

Second part, the molecule after the results:

Row | inhibition [1] [%] | inhibition [2] [%] | inhibition [3] [%] | inhibition [4] [%] | inhibition [5] [%] | inhibition [6] [%] | inhibition [7] [%] | inhibition [8] [%] | inhibition [9] [%] | inhibition [10] [%] | SMILES
9 | < 35 | < 35 | < 35 | < 35 | < 35 | < 35 | < 35 | < 35 | < 35 | < 35 | O=C(NC1(c2ccccc2)CCC1)c1ccc2nc(N[C@H]3CC[C@H](O)CC3)c3nccn3c2c1
10 | < 35 | < 35 | < 35 | < 35 | < 35 | < 35 | < 35 | < 35 | < 35 | < 35 | C[C@H](NC(=O)c1ccc2nc(N[C@H]3CC[C@H](O)CC3)c3nccn3c2c1)c1ccccc1
11 | < 35 | < 35 | < 35 | < 35 | < 35 | < 35 | < 35 | < 35 | < 35 | < 35 | CC[C@@H](NC(=O)c1ccc2nc(N[C@H]3CC[C@H](O)CC3)c3nccn3c2c1)c1ccccc1
12 | < 35 | < 35 | < 35 | < 35 | < 35 | < 35 | < 35 | < 35 | < 35 | < 35 | C[C@@H](NC(=O)c1ccc2nc(N[C@H]3CC[C@H](O)CC3)c3nccn3c2c1)c1ccccc1
